Experimental data from ChEMBL document CHEMBL1201862, “PubChem BioAssay data set” (2004).
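Briefly, cells in 96-well plates were exposed to five compound concentrations for 48 h, and endpoints were estimated by linear interpolation. Abbreviation: GI50, concentration required for 50% inhibition of growth.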 Activity calls are given as the source filed them. Cut-off read from the data, not from the text of the source: active = GI50 up to about 1.1 µM and inactive = higher.

Key:
Assay in all cases: NCI tumour cell line growth inhibition, 48 h
786-0 = system: 786-0
BT-549 = system: BT-549
DU-145 = system: DU-145
HOP-62 = system: HOP-62
MDA-MB-231 = system: MDA-MB-231
MDA-MB-435 = system: MDA-MB-435
NCI-H226 = system: NCI-H226
NCI-H522 = system: NCI-H522
NCI/ADR-RES = system: NCI/ADR-RES
OVCAR-8 = system: OVCAR-8
SK-MEL-28 = system: SK-MEL-28
TK-10 = system: TK-10
UACC-257 = system: UACC-257
COLO 205 = system: COLO 205

Structure (SMILES)	GI50 (786-0)	GI50 (BT-549)	GI50 (DU-145)	GI50 (HOP-62)	GI50 (MDA-MB-231)	GI50 (MDA-MB-435)	GI50 (NCI-H226)	GI50 (NCI-H522)	GI50 (NCI/ADR-RES)	GI50 (OVCAR-8)	GI50 (SK-MEL-28)	GI50 (TK-10)	GI50 (UACC-257)	GI50 (COLO 205)
COc1cc(/C=C2\N=C(c3ccccc3)N(C3Nc4cc5c(cc4S3)NC(N3C(=O)/C(=C/c4cc(OC)c(OC)c(OC)c4)N=C3c3ccccc3)S5)C2=O)cc(OC)c1OC (configuration not stated)	61.1 µM (inactive)	97.1 µM (inactive)	94.8 µM (inactive)	> 100 µM (inactive)	> 100 µM (inactive)	> 100 µM (inactive)	> 100 µM (inactive)	60.3 µM (inactive)	38.5 µM (inactive)	83.9 µM (inactive)	> 100 µM (inactive)	> 100 µM (inactive)	> 100 µM (inactive)	–
COc1cc2cc(C(=O)N3CC(CCl)c4ccc(NO)cc43)[nH]c2c(OC)c1OC (configuration not stated)	0.287 µM (active)	0.253 µM (active)	0.0953 µM (active)	0.0925 µM (active)	0.254 µM (active)	0.216 µM (active)	0.244 µM (active)	0.0671 µM (active)	0.0723 µM (active)	0.184 µM (active)	0.245 µM (active)	0.313 µM (active)	0.201 µM (active)	0.468 µM (active)
CC(C)NC(=O)OCc1c(COC(=O)NC(C)C)c(-c2ccc[n+](COC(=O)C3CCCCC3)c2)n2c1CCC2	28.1 µM (inactive)	48.1 µM (inactive)	28.4 µM (inactive)	37.7 µM (inactive)	40.5 µM (inactive)	> 100 µM (inactive)	> 100 µM (inactive)	25.1 µM (inactive)	60 µM (inactive)	51.2 µM (inactive)	> 100 µM (inactive)	94.6 µM (inactive)	> 100 µM (inactive)	93.1 µM (inactive)
O=C1Nc2ccc(Cl)cc2/C1=C\c1c(Cl)nc2sccn12	–	7.57 µM (inactive)	73.5 µM (inactive)	13.9 µM (inactive)	2.56 µM (inactive)	0.787 µM (active)	–	5.62 µM (inactive)	3.1 µM (inactive)	50.8 µM (inactive)	> 100 µM (inactive)	8.47 µM (inactive)	> 100 µM (inactive)	–
COP(=O)(OC)C(N)Cc1c[nH]c2ccccc12 (configuration not stated)	–	–	> 100 µM (inactive)	> 100 µM (inactive)	> 100 µM (inactive)	> 100 µM (inactive)	> 100 µM (inactive)	> 100 µM (inactive)	> 100 µM (inactive)	> 100 µM (inactive)	> 100 µM (inactive)	> 100 µM (inactive)	> 100 µM (inactive)	> 100 µM (inactive)
COc1ccccc1N1C(=O)/C(=C\c2cc(OC)c(OC)c(OC)c2)SC1c1ccccc1 (configuration not stated)	97.5 µM (inactive)	84.9 µM (inactive)	> 100 µM (inactive)	27.8 µM (inactive)	44.8 µM (inactive)	14.9 µM (inactive)	28.9 µM (inactive)	13.7 µM (inactive)	43 µM (inactive)	42 µM (inactive)	45.4 µM (inactive)	53.3 µM (inactive)	36.1 µM (inactive)	24.1 µM (inactive)
N#Cc1c2ccc([N+](=O)[O-])cc2c(=O)n2c1sc1ccc(C(F)(F)F)cc12	> 100 µM (inactive)	> 100 µM (inactive)	> 100 µM (inactive)	> 100 µM (inactive)	> 100 µM (inactive)	> 100 µM (inactive)	> 100 µM (inactive)	> 100 µM (inactive)	> 100 µM (inactive)	> 100 µM (inactive)	> 100 µM (inactive)	> 100 µM (inactive)	> 100 µM (inactive)	> 100 µM (inactive)
